Each block holds one compound with its values, some of them ahead of it.
What was measured:
[1] = target: Dual specificity tyrosine-phosphorylation-regulated kinase 1A (Homo sapiens, UniProt Q13627); conditions: at 10 µM
[2] = test system: Tyrosine-protein kinase ABL1 (Homo sapiens), P00519 [Y253F]; assay: (§1) Selectivity interaction (Ambit KINOMEscan and KiNATiv profiling in Jurkat cells) EUB0000090b ABL1; format: cell-based; conditions: at 1 µM
[3] = target: Tyrosine-protein kinase ABL1 (Homo sapiens, UniProt P00519); assay: as §1; format: cell-based; conditions: at 1 µM
[4] = test system: Tyrosine-protein kinase ABL1 (Homo sapiens), P00519 [F317L]; assay: as §1; format: cell-based; conditions: at 1 µM
[5] = test system: Tyrosine-protein kinase ABL1 (Homo sapiens), P00519 [E255K]; assay: as §1; format: cell-based; conditions: at 1 µM
[6] = test system: Tyrosine-protein kinase ABL1 (Homo sapiens), P00519 [Q252H]; assay: as §1; format: cell-based; conditions: at 1 µM
[7] = test system: Tyrosine-protein kinase ABL1 (Homo sapiens), P00519 [F317I]; assay: as §1; format: cell-based; conditions: at 1 µM
[8] = test system: Tyrosine-protein kinase ABL1 (Homo sapiens), P00519 [T315I]; assay: as §1; format: cell-based; conditions: at 1 µM
[9] = test system: Tyrosine-protein kinase ABL1 (Homo sapiens), P00519 [M351T]; assay: as §1; format: cell-based; conditions: at 1 µM
[10] = test system: Tyrosine-protein kinase ABL1 (Homo sapiens), P00519 [H396P]; assay: as §1; format: cell-based; conditions: at 1 µM
[11] = target: T1, Serine/threonine-protein kinase 16 (Homo sapiens, UniProt O75716); assay: Selectivity interaction (ActivX KiNativ screen (kinase selectivity in THP-1 cell lysates)) EUB0000639a STK16; format: subcellular; conditions: lysate, at 1 µM
[12] = target: Dual specificity mitogen-activated protein kinase kinase 2 (Homo sapiens) (UniProt P36507); assay: Selectivity interaction (ActivX KiNativ screen (kinase selectivity in THP-1 cell lysates)) EUB0000639a MAP2K2; format: subcellular; conditions: lysate, at 1 µM
[13] = target: Protein kinase C delta type (Homo sapiens) (UniProt Q05655); assay: Selectivity interaction (ActivX KiNativ screen (kinase selectivity in THP-1 cell lysates)) EUB0000639a PRKCD; format: subcellular; conditions: lysate
[14] = target: Dual specificity protein kinase CLK1 (Homo sapiens, UniProt P49759); assay: Selectivity interaction (KinomeScan (DiscoverX)) EUB0001550a CLK1; conditions: at 1 µM
[15] = target: Ribosomal protein S6 kinase alpha-4 (Homo sapiens) (UniProt O75676); conditions: at 10 µM
[16] = target: Protein-tyrosine kinase 2-beta (Homo sapiens) (UniProt Q14289); assay: Selectivity interaction (KinomeScan (DiscoverX)) EUB0000595a PTK2B; conditions: at 10 µM
[17] = target: Activin receptor type-2B (Homo sapiens) (UniProt Q13705); assay: Selectivity interaction (ProQinase) EUB0000171b ACVR2B
[18] = target: T2, Cytoplasmic tyrosine-protein kinase BMX (Homo sapiens) (UniProt P51813); assay: Selectivity interaction (KinomeScan (DiscoverX)) EUB0000092b BMX; conditions: at 10 µM
T2 sequence (whole entry): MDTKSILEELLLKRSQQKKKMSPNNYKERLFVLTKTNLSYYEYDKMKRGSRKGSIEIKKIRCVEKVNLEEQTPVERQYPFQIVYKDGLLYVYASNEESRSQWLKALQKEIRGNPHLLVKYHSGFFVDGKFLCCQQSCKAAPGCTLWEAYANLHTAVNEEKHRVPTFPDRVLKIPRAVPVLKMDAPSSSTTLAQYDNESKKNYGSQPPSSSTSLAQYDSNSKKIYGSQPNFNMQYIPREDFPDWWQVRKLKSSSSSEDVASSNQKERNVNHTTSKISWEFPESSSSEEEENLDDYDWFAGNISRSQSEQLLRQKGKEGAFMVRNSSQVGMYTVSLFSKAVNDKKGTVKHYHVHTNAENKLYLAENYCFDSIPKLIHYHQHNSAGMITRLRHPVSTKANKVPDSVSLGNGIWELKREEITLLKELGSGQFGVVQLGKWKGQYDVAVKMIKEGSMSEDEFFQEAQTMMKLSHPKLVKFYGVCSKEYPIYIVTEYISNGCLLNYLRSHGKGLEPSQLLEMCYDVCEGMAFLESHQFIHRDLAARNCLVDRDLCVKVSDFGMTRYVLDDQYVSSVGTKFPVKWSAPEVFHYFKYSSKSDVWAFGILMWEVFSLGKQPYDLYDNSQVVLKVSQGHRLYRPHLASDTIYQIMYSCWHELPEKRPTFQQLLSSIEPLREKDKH

[19] = target: T1, Serine/threonine-protein kinase 16; assay: Selectivity interaction (KinomeScan (DiscoverX)) EUB0000045b STK16
[20] = target: Serine/threonine-protein kinase 26 (Homo sapiens, UniProt Q9P289); conditions: PBMC, at 1 µM
[21] = target: Fibroblast growth factor receptor 2 (Homo sapiens) (UniProt P21802); assay: Selectivity interaction (KinomeScan (DiscoverX)) EUB0001619a FGFR2; conditions: at 1 µM
[22] = target: Protein kinase C delta type (Homo sapiens) (UniProt Q05655); assay: Selectivity interaction (KinomeScan (DiscoverX)) EUB0001619a PRKCD; conditions: at 1 µM
[23] = target: Cyclin-dependent kinase 9 (Homo sapiens, UniProt P50750); assay: Selectivity interaction (KinomeScan (DiscoverX)) EUB0000618a CDK9; conditions: at 10 µM
[24] = target: Tyrosine-protein kinase Lyn (Homo sapiens, UniProt P07948); assay: Selectivity interaction (SelectScreen profiling (Invitrogen)) EUB0000607a LYN; conditions: at 2 µM
[25] = target: AP2-associated protein kinase 1 (Homo sapiens, UniProt Q2M2I8); assay: Selectivity interaction (KinomeScan (DiscoverX)) EUB0000666a AAK1; conditions: at 10 µM
[26] = target: Cyclin-dependent kinase 11B (Homo sapiens) (UniProt P21127); assay: Selectivity interaction (KinomeScan (DiscoverX)) EUB0000666a CDK11B; conditions: at 10 µM
Sequence of Cyclin-dependent kinase 11B (Homo sapiens) (P21127 whole entry): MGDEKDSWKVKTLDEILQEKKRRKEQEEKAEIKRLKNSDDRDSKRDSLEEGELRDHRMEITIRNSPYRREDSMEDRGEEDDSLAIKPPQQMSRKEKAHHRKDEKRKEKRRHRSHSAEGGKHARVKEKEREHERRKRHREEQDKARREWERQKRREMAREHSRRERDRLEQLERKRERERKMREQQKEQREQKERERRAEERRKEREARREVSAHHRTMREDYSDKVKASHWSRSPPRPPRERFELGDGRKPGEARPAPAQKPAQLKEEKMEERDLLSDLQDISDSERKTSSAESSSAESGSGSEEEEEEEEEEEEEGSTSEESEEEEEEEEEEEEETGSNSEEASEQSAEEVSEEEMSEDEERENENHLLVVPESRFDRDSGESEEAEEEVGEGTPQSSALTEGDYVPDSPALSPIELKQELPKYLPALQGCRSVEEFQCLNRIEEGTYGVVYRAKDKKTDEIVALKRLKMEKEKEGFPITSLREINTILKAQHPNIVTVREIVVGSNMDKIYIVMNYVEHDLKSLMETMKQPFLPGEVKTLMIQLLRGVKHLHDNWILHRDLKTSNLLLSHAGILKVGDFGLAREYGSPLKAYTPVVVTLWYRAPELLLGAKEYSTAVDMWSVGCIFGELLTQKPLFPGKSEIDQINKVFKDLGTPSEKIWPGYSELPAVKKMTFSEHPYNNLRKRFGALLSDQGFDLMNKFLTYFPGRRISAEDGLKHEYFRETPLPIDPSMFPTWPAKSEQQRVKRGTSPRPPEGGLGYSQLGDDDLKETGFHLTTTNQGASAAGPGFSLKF

T1 sequence (O75716 whole entry): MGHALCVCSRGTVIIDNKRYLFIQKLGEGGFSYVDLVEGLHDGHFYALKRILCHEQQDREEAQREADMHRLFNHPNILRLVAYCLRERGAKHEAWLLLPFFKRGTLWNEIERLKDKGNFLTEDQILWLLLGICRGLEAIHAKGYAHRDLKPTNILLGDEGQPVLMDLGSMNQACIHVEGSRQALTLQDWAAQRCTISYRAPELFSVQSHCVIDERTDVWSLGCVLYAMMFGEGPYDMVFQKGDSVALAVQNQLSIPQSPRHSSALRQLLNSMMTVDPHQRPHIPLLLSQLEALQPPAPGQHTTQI
Sequence of Protein kinase C delta type (Homo sapiens) (Q05655 whole entry, looked up): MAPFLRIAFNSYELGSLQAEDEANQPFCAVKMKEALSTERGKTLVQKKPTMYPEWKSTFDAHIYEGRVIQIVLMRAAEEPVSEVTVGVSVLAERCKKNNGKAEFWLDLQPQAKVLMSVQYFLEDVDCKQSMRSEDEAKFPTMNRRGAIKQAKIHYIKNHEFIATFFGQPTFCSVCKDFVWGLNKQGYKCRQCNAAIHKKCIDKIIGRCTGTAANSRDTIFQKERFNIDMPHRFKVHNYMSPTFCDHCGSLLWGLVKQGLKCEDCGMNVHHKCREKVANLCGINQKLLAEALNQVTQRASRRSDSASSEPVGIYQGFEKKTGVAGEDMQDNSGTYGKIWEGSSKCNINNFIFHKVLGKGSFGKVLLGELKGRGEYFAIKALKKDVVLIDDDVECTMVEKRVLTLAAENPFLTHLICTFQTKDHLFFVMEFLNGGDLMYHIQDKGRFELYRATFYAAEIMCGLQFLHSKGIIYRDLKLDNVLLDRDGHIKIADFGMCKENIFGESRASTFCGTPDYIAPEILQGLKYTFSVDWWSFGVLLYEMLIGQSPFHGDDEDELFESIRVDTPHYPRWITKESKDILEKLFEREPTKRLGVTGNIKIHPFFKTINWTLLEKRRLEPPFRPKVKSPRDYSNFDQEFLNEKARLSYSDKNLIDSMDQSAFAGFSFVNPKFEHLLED
Sequence of Activin receptor type-2B (Homo sapiens) (Q13705 whole entry): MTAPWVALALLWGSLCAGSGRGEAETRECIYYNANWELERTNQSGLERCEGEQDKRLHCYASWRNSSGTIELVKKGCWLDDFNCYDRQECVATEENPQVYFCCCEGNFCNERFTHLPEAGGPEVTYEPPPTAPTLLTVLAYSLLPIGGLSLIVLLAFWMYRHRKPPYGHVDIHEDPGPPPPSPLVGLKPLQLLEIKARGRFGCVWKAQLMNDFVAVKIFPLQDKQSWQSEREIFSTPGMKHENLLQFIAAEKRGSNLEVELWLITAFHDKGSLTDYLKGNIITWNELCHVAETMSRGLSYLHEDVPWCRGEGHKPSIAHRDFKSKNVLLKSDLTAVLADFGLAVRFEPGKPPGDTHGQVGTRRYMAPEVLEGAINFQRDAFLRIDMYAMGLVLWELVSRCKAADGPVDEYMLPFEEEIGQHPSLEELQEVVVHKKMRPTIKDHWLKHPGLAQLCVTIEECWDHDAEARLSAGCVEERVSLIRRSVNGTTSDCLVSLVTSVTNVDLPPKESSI
Sequence of Serine/threonine-protein kinase 26 (Q9P289 2-416 limits assumed): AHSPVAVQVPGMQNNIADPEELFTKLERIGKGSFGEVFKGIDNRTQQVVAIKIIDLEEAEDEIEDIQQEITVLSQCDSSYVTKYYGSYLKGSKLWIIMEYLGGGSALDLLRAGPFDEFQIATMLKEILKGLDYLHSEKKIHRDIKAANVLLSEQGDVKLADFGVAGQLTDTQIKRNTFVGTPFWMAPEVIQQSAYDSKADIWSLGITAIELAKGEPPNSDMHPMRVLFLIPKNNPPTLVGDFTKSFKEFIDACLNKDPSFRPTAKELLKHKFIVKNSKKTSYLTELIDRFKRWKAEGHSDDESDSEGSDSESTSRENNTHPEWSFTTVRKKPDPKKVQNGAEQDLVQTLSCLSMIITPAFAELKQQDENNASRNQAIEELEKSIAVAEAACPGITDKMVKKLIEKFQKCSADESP
Sequence of Dual specificity mitogen-activated protein kinase kinase 2 (Homo sapiens) (P36507 whole entry): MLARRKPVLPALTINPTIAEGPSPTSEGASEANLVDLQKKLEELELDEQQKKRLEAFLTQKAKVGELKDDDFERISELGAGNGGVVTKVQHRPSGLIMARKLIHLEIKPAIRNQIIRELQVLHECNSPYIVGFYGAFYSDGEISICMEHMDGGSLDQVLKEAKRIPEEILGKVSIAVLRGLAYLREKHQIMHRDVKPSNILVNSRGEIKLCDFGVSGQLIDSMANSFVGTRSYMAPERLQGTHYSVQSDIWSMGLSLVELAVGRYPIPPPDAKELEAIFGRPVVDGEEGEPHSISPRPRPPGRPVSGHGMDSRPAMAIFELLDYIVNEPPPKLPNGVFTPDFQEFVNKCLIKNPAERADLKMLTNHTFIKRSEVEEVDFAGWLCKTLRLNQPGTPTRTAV
Sequence of Dual specificity protein kinase CLK1 (P49759 whole entry, looked up): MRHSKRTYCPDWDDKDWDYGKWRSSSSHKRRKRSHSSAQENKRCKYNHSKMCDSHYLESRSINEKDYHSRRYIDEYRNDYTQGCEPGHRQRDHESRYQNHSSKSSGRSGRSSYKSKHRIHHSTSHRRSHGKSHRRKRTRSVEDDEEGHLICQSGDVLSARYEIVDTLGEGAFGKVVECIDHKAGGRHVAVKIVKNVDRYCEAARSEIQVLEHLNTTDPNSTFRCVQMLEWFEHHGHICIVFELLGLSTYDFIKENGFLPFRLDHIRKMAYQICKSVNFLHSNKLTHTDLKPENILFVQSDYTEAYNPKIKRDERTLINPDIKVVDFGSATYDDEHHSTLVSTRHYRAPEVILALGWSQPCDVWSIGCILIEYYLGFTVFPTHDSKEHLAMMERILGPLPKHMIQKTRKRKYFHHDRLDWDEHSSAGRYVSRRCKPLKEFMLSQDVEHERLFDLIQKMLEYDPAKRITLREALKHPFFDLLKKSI
Sequence of Tyrosine-protein kinase Lyn (P07948 2-512 limits assumed): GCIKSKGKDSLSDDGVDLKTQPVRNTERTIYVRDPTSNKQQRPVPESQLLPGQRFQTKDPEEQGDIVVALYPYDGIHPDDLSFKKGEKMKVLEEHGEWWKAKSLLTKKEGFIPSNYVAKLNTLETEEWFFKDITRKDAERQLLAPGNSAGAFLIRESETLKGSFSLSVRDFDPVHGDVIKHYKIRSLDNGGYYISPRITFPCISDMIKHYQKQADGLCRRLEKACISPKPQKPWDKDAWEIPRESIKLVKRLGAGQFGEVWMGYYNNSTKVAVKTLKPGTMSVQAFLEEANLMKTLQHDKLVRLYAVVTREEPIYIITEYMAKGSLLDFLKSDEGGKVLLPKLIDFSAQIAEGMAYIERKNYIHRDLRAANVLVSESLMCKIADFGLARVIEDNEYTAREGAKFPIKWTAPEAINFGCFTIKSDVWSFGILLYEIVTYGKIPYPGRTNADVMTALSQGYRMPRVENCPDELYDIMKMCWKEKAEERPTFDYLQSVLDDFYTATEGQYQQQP
Sequence of Fibroblast growth factor receptor 2 (Homo sapiens) (P21802 22-821 limits assumed): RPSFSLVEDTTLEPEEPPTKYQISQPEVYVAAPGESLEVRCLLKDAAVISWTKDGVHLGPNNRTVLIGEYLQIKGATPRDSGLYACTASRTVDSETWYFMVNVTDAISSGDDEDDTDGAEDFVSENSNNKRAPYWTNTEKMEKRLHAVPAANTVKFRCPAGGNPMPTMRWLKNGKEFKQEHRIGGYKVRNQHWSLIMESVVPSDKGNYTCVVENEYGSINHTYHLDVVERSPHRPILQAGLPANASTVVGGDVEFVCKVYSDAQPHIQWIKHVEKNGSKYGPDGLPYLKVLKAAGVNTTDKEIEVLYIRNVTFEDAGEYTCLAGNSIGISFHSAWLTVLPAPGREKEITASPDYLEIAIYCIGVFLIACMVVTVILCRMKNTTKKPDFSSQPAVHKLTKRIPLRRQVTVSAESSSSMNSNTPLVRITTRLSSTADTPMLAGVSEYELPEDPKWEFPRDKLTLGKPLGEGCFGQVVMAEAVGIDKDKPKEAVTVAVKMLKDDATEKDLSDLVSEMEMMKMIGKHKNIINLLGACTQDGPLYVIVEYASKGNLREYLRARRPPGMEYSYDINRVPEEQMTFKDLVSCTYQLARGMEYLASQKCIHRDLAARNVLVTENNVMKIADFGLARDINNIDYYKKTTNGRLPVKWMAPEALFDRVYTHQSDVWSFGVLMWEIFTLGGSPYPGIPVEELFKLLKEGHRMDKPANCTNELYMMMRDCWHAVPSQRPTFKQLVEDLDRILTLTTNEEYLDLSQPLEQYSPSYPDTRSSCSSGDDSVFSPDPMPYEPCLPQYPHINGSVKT

Structure (SMILES): Cc1cc([C@@H](C)Nc2ccccc2C(=O)O)c2nc(N3CCOCC3)cc(=O)n2c1 [AZD-6482]
- % of control [1]: 90%

Structure (SMILES): CN(C)C/C=C/C(=O)Nc1ccc(C(=O)N2CCCC(Nc3ncc(Cl)c(-c4c[nH]c5ccccc45)n3)C2)cc1 (configuration not stated)
- % of control [2]: 92%
- % of control [3]: 94%
- % of control [4]: 91%
- % of control [5]: 45%
- % of control [6]: 58%
- % of control [7]: 100%
- % of control [8]: 99%
- % of control [9]: 88%
- % of control [10]: 95%

- % of inhibition [11]: 58.6%
- % of inhibition [12]: -10.2%
- % of inhibition ([13]; at 0.01 µM): -1%
- % of inhibition ([13]; at 0.04 µM): -2%
- % of inhibition ([13]; at 0.2 µM): 1.3%
- % of inhibition ([13]; at 1 µM): 7.2%
- % of inhibition ([13]; at 5 µM): -13.1%
Structure (SMILES): CC[C@@H]1[C@H](F)C(=O)N[C@@H]1COc1nccc2cc(C(N)=O)c(OC)cc12 [ZIMLOVISERTIB]

- % of control [14]: 30%
Structure (SMILES): CN(C)CC#Cc1ccc2[nH]c3c(c2c1)-c1nc(N)ncc1CCC3

- % of control [15]: 100%
Structure (SMILES): CCN(CC)CCCCNc1ncc2cc(-c3cc(OC)cc(OC)c3)c(NC(=O)NC(C)(C)C)nc2n1

Structure (SMILES): COCC(=O)NC/C=C/c1ccc2ncnc(Nc3ccc(Oc4ccc(C)nc4)c(C)c3)c2c1 [CP-724714]
- % of control [16]: 80%

- % of control ([17]; at 1 µM): 88%
- % of control ([17]; at 5 µM): 68%
Structure (SMILES): C=CC(=O)Nc1cccc(C(=O)Nc2ccc(Nc3cc(-c4[nH]c(SC)nc4C)ccn3)cc2)c1

Structure (SMILES): CCC(=O)N1CCN(c2ccc(-n3c(=O)ccc4cnc5ccc(-c6cnc7ccccc7c6)cc5c43)cc2C(F)(F)F)CC1
- % of control [18]: 59%

Structure (SMILES): C=CC(=O)Nc1cc(-n2c(=O)ccc3cnc4ccc(-c5ccc(NS(C)(=O)=O)cc5)cc4c32)ccc1C
- % of control ([19]; at 1 µM): 98%
- % of control ([19]; at 10 µM): 28%

Structure (SMILES): N#Cc1cccc(-c2c[nH]c3ncnc(N4CCOCC4)c23)c1
- % of inhibition [20]: 39%
- % of control [21]: 100%
- % of control [22]: 67%

Structure (SMILES): O[C@H]1CC[C@H](Nc2ncc3nc(Nc4c(F)cc(F)cc4F)n([C@H]4CCOC4)c3n2)CC1
- % of control [23]: 78%

Structure (SMILES): CNC(=O)Nc1ccc(-c2nc(N3CC4CCC(C3)O4)c3cnn(C4CCC5(CC4)OCCO5)c3n2)cc1
- % of inhibition [24]: 5%

Structure (SMILES): O=C(NOC[C@H](O)CO)c1ccc(F)c(F)c1Nc1ccc(I)cc1F
- % of control [25]: 100%
- % of control [26]: 97%

— ChEMBL document CHEMBL5465560, “Selectivity Literature for EUbOPEN Chemogenomic Library” (2024)
